Measurements reported in ChEMBL document CHEMBL1201862, “PubChem BioAssay data set” (2004).
Activity calls are given as the source filed them.

Columns and labels:
[1] = biological target: T1, Histone-lysine N-methyltransferase NSD2 (Homo sapiens, UniProt O96028); assay type: biochemical
T1 sequence (O96028 whole entry): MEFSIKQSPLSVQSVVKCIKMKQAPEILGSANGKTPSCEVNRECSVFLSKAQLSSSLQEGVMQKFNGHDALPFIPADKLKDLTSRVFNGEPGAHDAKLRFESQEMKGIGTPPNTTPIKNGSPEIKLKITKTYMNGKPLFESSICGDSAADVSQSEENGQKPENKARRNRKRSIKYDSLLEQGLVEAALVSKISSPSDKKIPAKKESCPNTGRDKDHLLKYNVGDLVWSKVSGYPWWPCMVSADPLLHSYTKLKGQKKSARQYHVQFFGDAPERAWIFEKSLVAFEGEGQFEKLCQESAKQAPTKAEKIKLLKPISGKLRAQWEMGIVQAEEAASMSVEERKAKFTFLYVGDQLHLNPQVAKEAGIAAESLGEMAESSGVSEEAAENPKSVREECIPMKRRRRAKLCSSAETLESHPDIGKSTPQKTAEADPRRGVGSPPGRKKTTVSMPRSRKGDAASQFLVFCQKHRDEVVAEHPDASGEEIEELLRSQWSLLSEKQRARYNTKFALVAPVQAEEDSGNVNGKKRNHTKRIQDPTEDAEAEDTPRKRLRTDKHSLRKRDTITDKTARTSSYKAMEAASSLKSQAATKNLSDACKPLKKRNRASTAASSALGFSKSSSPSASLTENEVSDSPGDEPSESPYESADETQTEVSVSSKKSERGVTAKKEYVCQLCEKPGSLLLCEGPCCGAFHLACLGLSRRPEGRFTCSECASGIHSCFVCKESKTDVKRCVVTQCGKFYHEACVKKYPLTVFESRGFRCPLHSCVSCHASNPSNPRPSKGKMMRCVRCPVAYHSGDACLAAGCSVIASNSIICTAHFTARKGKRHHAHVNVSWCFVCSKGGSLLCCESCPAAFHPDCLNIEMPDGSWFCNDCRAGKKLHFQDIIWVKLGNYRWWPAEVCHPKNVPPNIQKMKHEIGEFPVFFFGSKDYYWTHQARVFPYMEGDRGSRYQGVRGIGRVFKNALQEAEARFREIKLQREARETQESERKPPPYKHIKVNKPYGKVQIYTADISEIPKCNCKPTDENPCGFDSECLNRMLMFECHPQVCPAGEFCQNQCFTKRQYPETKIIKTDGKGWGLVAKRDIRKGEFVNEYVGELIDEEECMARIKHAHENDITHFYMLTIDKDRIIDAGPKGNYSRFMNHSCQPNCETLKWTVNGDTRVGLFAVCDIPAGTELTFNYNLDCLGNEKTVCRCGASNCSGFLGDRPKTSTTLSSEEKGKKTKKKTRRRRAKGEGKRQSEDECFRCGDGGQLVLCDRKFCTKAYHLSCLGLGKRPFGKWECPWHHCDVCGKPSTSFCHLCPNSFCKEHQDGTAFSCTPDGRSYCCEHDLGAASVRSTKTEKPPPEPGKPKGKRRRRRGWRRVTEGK

[2] = biological target: Heat shock protein HSP 90-alpha (Homo sapiens, UniProt P07900); assay type: functional, organism-based
[3] = viability of PTEN-deleted HCT116 cells – cell-based, HCT116 PTEN knockout, dose response (AID 1047); assay type: functional;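 note: HCT116 colon tumor cells with PTEN knocked out; cells exposed to compound for 60 hours before readout; potency for loss of cell viability measured by luminescence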
[4] = viability of HCT116 lacking mutant beta-catenin – cell-based, human colon tumor, dose response (AID 1045); assay type: functional;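 note: HCT116 colon tumor cells with beta catenin knocked out; cells exposed to compound for 60 hours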
[5] = biological target: T2, Alkaline phosphatase, tissue-nonspecific isozyme (Homo sapiens, UniProt P05186); assay: potency against alkaline phosphatase TNAP – biochemical, luminescent, dose response, SAR follow-up (AID 1056)
T2 sequence (P05186 whole entry): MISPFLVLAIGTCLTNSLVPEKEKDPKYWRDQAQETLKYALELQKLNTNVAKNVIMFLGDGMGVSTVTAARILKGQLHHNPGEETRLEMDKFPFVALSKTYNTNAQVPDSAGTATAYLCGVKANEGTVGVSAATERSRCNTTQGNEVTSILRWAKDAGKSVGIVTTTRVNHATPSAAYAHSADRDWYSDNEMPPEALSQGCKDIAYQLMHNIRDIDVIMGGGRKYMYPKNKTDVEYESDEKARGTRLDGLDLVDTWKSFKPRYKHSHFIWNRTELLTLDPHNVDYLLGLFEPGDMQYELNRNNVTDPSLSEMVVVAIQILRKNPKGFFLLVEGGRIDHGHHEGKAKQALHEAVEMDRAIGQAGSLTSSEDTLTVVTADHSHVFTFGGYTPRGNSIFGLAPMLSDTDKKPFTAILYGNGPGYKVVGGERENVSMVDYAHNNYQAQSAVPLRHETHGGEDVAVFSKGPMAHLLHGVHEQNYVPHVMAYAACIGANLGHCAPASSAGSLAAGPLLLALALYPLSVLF

[6] = biological target: Glyceraldehyde-3-phosphate dehydrogenase (Homo sapiens, UniProt P04406)
Glyceraldehyde-3-phosphate dehydrogenase, sequence (P04406 whole entry): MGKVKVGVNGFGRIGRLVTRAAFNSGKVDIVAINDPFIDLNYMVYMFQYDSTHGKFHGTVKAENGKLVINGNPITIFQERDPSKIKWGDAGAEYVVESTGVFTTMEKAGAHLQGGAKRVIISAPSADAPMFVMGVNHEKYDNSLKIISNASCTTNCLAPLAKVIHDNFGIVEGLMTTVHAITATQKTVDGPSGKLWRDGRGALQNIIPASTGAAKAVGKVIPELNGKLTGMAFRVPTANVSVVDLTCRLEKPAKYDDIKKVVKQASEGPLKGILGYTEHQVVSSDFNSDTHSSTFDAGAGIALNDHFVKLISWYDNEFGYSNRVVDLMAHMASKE

[7] = biological target: Peroxisome proliferator-activated receptor gamma/Nuclear receptor coactivator 3 (Homo sapiens, UniProt P37231); assay type: functional;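 note: agonist potency for raising coactivator recruitment to the receptor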
Peroxisome proliferator-activated receptor gamma/Nuclear receptor coactivator 3, sequence (P37231 whole entry): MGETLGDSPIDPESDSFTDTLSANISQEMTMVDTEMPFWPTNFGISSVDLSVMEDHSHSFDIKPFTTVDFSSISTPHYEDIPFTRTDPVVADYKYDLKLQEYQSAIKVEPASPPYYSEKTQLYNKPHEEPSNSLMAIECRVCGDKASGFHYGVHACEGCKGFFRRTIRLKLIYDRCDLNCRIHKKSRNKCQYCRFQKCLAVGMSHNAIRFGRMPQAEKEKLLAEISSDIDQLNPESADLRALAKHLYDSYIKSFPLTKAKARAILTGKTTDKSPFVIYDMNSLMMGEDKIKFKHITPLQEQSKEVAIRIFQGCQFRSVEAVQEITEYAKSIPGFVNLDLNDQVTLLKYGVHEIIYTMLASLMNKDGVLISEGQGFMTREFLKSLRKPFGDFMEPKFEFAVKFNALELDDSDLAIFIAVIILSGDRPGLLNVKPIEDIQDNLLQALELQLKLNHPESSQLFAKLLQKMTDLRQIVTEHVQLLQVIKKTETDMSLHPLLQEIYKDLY
Peroxisome proliferator-activated receptor gamma/Nuclear receptor coactivator 3, sequence (Q9Y6Q9 whole entry, further chain): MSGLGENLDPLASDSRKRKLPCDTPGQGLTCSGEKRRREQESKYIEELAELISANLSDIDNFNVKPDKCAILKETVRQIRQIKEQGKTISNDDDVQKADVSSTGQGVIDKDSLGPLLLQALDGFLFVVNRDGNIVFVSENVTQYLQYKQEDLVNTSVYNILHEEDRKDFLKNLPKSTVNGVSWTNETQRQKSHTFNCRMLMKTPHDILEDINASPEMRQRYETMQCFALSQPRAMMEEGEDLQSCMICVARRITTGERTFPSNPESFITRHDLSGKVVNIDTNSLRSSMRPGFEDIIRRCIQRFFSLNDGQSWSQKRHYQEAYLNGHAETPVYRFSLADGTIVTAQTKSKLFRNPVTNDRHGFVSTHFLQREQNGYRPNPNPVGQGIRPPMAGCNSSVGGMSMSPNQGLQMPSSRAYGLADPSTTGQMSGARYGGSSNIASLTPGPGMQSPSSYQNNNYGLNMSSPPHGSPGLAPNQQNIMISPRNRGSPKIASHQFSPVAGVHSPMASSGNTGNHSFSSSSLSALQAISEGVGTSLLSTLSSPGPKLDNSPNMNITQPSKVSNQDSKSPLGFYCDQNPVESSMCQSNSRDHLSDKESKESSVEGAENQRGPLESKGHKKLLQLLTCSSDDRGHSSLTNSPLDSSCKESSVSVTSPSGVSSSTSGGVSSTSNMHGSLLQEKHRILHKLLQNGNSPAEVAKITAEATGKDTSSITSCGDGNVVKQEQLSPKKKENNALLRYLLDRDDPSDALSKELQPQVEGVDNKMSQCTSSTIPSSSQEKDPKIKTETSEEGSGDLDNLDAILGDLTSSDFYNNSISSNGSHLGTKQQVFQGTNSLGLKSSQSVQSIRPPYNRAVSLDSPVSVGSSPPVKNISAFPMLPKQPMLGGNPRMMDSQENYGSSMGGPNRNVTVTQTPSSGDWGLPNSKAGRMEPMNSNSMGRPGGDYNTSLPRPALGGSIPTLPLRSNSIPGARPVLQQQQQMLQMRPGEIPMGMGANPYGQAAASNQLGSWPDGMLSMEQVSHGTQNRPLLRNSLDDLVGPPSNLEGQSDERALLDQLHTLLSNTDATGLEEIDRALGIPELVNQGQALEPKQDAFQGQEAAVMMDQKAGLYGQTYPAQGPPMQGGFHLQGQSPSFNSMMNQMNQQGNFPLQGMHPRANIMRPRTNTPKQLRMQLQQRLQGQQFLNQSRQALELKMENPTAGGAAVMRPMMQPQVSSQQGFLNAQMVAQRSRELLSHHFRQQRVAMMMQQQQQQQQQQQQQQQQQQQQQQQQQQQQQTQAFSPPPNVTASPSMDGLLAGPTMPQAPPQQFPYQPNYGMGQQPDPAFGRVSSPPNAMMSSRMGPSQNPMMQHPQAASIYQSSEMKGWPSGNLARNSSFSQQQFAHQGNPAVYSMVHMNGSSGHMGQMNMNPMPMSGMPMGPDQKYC

[8] = biological target: Peroxisome proliferator-activated receptor gamma/Nuclear receptor coactivator 1 (Homo sapiens, UniProt P37231); assay type: functional;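 note: agonist potency as compounds enhance coactivator SRC-1 recruitment to PPARgamma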
Peroxisome proliferator-activated receptor gamma/Nuclear receptor coactivator 1, sequence (P37231 whole entry): as the sequence (P37231 whole entry) above
Peroxisome proliferator-activated receptor gamma/Nuclear receptor coactivator 1, sequence (Q15788 whole entry, further chain): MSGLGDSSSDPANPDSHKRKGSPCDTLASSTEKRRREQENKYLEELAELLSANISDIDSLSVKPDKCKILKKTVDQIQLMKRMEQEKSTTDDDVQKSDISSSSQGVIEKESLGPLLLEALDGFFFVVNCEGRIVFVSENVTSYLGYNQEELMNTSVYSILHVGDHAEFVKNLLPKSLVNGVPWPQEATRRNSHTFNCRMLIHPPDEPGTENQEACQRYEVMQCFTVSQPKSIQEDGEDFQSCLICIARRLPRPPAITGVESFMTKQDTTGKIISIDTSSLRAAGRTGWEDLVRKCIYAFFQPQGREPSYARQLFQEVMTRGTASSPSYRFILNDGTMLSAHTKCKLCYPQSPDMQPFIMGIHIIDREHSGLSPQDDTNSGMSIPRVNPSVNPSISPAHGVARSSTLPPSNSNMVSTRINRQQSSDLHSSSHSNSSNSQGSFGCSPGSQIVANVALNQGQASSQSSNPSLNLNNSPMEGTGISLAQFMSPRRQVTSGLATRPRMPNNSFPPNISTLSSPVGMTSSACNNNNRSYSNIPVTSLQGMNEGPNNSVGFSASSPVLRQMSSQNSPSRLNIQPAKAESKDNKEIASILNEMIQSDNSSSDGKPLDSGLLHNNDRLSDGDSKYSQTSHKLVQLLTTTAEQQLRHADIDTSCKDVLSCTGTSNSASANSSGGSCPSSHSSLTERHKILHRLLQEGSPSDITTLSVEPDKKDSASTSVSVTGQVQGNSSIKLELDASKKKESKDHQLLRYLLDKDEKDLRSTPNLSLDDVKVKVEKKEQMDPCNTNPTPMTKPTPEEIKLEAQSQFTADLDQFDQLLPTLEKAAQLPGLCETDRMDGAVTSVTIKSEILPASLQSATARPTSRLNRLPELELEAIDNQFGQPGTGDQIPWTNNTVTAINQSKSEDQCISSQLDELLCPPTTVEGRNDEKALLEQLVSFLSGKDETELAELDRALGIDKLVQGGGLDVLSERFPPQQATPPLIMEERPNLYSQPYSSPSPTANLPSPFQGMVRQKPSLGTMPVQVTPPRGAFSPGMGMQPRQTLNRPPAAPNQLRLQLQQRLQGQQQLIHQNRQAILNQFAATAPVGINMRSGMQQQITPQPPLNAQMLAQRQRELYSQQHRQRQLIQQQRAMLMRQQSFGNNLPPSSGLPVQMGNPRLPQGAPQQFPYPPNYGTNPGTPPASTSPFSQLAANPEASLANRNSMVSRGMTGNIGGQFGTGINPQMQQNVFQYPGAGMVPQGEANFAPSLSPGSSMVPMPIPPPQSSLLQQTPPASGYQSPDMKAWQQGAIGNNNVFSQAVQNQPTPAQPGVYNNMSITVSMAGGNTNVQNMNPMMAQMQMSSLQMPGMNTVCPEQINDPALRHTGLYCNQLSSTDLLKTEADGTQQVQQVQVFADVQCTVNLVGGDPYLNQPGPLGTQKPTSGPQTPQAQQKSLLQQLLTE

[9] = biological target: Peroxisome proliferator-activated receptor gamma/Nuclear receptor coactivator 2 (Homo sapiens, UniProt P37231); assay type: functional;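 note: agonist potency for raising coactivator recruitment to the receptor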
Fatty acid synthase = Fatty acid synthase (Homo sapiens, UniProt P49327); assay: inhibition of human FAS-TE enzyme activity – biochemical, kinetic fluorescence intensity, dose response (AID 624326); assay type: functional;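 note: rate of fluorescence rise from hydrolysis of a fluorogenic O-methyl fluorescein ester substrate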
[10] = microbe, parasite or virus in culture; assay type: functional; conditions: Mycobacterium tuberculosis
[11] = biological target: T3, Heat shock factor protein 1 (Mus musculus, UniProt P38532); assay: decrease of HSF1-responsive luciferase luminescence – cell-based, NIH3T3, dose retest, confirmation (AID 2382); assay type: functional;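 note: NIH3T3 fibroblasts with HSF1-driven luciferase reporter stressed by proteasome inhibitor MG132; luminescence from HSF1-driven luciferase expression after 8 hours of MG132 stress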
T3 sequence (P38532 whole entry): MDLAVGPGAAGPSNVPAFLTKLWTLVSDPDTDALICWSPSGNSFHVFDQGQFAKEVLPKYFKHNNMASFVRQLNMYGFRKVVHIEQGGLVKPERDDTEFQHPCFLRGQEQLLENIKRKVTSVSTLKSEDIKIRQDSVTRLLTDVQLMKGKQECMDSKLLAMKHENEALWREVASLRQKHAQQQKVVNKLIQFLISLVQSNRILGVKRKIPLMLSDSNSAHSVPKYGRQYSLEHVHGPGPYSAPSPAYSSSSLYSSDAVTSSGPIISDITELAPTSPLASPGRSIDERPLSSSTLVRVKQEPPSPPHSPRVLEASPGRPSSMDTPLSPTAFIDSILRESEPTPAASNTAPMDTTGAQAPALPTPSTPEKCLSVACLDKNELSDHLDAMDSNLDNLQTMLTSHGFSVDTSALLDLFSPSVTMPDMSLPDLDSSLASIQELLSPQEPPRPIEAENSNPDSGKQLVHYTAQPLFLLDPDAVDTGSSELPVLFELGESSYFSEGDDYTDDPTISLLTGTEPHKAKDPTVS

[12] = biological target: T4, Replicative DNA helicase DnaB (Mycobacterium tuberculosis, UniProt P9WMR3); assay: DnaB intein splicing inhibitors, dose response, biochemical, cell-free fluorescence (AID 449749); assay type: functional
T4 sequence (P9WMR3 whole entry): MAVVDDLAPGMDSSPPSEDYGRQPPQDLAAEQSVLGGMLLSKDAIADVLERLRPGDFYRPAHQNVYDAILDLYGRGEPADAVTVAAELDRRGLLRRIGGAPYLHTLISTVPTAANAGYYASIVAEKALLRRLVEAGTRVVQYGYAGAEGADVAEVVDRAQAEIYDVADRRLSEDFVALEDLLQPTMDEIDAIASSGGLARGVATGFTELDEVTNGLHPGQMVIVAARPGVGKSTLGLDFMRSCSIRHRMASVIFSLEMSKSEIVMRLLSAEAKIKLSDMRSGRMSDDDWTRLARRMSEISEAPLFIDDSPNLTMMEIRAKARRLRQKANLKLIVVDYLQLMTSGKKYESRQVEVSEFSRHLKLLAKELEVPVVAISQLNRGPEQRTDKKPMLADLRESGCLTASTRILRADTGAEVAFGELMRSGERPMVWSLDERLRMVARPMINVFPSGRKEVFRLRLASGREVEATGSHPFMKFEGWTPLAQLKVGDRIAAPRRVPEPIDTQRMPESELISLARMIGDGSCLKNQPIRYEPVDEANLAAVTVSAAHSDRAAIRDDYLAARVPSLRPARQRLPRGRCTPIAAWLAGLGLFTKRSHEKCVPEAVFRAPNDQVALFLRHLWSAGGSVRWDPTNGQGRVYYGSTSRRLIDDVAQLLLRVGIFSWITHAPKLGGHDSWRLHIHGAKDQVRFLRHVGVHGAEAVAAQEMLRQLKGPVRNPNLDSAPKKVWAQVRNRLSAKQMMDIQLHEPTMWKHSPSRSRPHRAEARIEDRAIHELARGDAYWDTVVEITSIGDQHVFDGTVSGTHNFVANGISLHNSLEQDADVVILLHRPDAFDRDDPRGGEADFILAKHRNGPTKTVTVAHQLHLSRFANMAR

Protein RecA = biological target: T5, Protein RecA (Mycobacterium tuberculosis, UniProt P9WHJ3); assay: Fluorescence Cell-Free Homogeneous Dose Retest to Identify Inhibitors of RecA-Intein Splicing Activity. [Related pubchem assays (depositor defined):AID2097, AID2223, AID489010, AID492950]; assay type: functional
T5 sequence (P9WHJ3 whole entry): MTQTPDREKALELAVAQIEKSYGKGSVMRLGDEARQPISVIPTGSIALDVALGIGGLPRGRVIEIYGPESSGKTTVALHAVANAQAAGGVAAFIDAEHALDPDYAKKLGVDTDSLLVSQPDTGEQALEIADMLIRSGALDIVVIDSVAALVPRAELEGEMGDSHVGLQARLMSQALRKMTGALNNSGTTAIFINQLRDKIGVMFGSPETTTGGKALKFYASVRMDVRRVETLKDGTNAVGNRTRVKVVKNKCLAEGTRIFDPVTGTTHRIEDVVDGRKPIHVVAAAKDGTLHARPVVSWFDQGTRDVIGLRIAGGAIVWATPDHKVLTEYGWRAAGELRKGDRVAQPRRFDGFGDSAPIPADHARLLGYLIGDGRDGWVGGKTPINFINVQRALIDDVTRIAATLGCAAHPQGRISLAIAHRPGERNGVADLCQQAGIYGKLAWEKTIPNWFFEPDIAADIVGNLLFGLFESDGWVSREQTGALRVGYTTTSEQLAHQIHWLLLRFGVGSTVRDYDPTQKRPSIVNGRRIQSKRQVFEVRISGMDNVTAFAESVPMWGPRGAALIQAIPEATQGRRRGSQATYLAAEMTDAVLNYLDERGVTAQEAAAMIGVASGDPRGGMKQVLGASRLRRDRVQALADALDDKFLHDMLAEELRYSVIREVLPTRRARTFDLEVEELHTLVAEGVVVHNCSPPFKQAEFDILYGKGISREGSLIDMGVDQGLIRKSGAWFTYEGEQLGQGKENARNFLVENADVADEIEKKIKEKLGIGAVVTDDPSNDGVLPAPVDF

[13] = viability of uninfected HEp-2 cells – cell-based, HTS, cytotoxicity control for RSV inhibitor project, dose response (AID 2410); assay type: functional; conditions: human respiratory syncytial virus

CCOCCCNC1=C(Cl)C(=O)c2ccccc2C1=O
AC50 [1]: 12.3 µM (active) | AC50 [2]: 10.6 µM (active)

CCOC(=O)c1[nH]c(CSc2nnc(-c3ccc(OC)cc3)o2)c(C(=O)OCC)c1C
EC50 [3]: 20.8 µM (active) | EC50 [4]: 21.6 µM (active)

c1cncc(-c2cc[nH]n2)c1
IC50 [5]: > 100 µM (inactive) | IC50 [6]: > 100 µM (not active)

O=S(=O)(c1ccc2ccccc2c1)n1ccc2ccccc21
IC50 [5]: > 100 µM (inactive) | IC50 [6]: > 100 µM (not active)

NCc1cc(-c2cccnc2)no1
IC50 [5]: > 100 µM (inactive) | IC50 [6]: > 100 µM (not active)

CNC(=O)c1n[nH]c2c1COc1ccccc1-2
IC50 [5]: > 100 µM (inactive) | IC50 [6]: > 100 µM (not active)

O=C(c1cccc(C(F)(F)F)c1)N1CCN(c2cc(O)nnc2-c2ccccc2)CC1
EC50 [7]: > 79.4 µM (not active) | EC50 [8]: > 79.4 µM (not active) | EC50 [9]: > 79.4 µM (not active)

COc1ccc(-c2noc(Cc3ccccc3OC)n2)cc1
EC50 [7]: > 79.4 µM (not active) | EC50 [8]: > 79.4 µM (not active) | EC50 [9]: > 79.4 µM (not active)

CC1(C(=O)NS(=O)(=O)c2ccc(C#N)cc2)CCN1C(=O)c1ccc(C2CCCCC2)cc1 (configuration not stated)
IC50 (Fatty acid synthase): 5.24 µM (active)

CC(C)(C)NC(=O)CSc1nc(O)cc(=O)n1-c1ccccc1F
EC50 [7]: > 79.4 µM (not active) | EC50 [8]: > 79.4 µM (not active) | EC50 [9]: > 79.4 µM (not active)

CC(C)(C)c1ccc(-c2nnc3sc(-c4ccncc4)nn23)cc1
EC50 [7]: > 79.4 µM (not active) | EC50 [8]: > 79.4 µM (not active) | EC50 [9]: > 79.4 µM (not active)

Cc1ccccc1N=C(S)NC(NC(=O)COc1ccccc1)C(Cl)(Cl)Cl (configuration not stated)
EC50 [3]: 27.2 µM (active) | EC50 [4]: 31 µM (active)

Cc1cc(N2CCN(c3cccc(C)c3C)CC2)nc(-c2ccccc2)n1
AC50 [2]: 1.66 µM (active)

O=C(c1ccc(-c2ccccc2)c(F)c1)C1CCCN(C(=O)c2cncs2)C1 (configuration not stated)
CC50 [10]: 32.9 µM (active) | AC50 [2]: 7.61 µM (active) | EC50 [11]: > 195 µM (not active)

COc1ccc(-c2nnc(Sc3nc4ccccc4o3)c3ccccc23)cc1
AC50 [12]: 3.8 µM (active) | EC50 (Protein RecA): 703 nM (active) | EC50 [3]: 18.3 µM (active) | EC50 [4]: 16.2 µM (active)

Cc1nn(-c2ccccc2)c2sc(C(=O)NNC(=O)COc3cccc4ccccc34)cc12
EC50 [3]: 19.2 µM (active) | EC50 [4]: 19.3 µM (active)

C#CCn1/c(=N/C(=O)c2ccc(Cl)s2)sc2cccc(OC)c21
EC50 [7]: 21.5 µM (not active) | EC50 [8]: 18.4 µM (not active) | CC50 [13]: 19.1 µM (active) | EC50 [9]: 12.8 µM (not active)

COC(=O)Nc1ccc2c(c1)N(C(=O)CCN(C)C)c1ccccc1CC2
AC50 [1]: > 20 µM (inactive)
